In ChEMBL document CHEMBL3085639, “Novel camphane-based anti-tuberculosis agents with nanomolar activity” (2013):
Converted amounts (≈) assume the structure as drawn.

system: Mycobacterium tuberculosis; assay: Antimycobacterial activity against rifampin/isoniazid-resistant Mycobacterium tuberculosis 43 assessed as growth inhibition after 45 days by Canetti proportional method; type: functional

Structure (SMILES)	MIC
CC1(C)[C@@H]2CC[C@@]1(C)[C@H](O)[C@@H]2NC(=O)/C=C/c1ccccc1	6.68 µM (≈ 2 µg/mL)
CC1(C)[C@@H]2CC[C@@]1(C)[C@H](O)[C@@H]2NC(=O)c1ccco1	7.59 µM (≈ 2 µg/mL)
CC(=O)Oc1ccccc1C(=O)N[C@@H]1[C@H]2CC[C@@](C)([C@@H]1O)C2(C)C	> 15.1 µM
CC1(C)[C@@H]2CC[C@@]1(C)[C@H](O)[C@@H]2NC(=O)c1cccnc1	18.2 µM (≈ 5 µg/mL)
CCNC(=O)N[C@@H]1[C@H]2CC[C@@](C)([C@@H]1O)C2(C)C	> 20.8 µM
CC1(C)[C@@H]2CC[C@@]1(C)[C@H](O)[C@@H]2NC(=O)CCc1ccccc1	6.63 µM (≈ 2 µg/mL)
